In patent publication US9226937B2 (priority 2011, dated 2016):

Assays:
fibrosarcoma cells = conditions: cited from earlier work
rhabdomyosarcoma cells = conditions: low dosage; cited from earlier work
injected tumors = conditions: mice with injected tumors; cited from earlier work
SIRT1 = target: T1, SIRT1 (Homo sapiens, UniProt Q96EB6); assay: SIRT1 Fluorescent Activity Assay/Drug Discovery Kit AK-555; format: biochemical; conditions: stored under ambient conditions
T1 construct: purchased Biomol Research Laboratories, Inc. AK-555
T1 sequence (Q96EB6 1-747): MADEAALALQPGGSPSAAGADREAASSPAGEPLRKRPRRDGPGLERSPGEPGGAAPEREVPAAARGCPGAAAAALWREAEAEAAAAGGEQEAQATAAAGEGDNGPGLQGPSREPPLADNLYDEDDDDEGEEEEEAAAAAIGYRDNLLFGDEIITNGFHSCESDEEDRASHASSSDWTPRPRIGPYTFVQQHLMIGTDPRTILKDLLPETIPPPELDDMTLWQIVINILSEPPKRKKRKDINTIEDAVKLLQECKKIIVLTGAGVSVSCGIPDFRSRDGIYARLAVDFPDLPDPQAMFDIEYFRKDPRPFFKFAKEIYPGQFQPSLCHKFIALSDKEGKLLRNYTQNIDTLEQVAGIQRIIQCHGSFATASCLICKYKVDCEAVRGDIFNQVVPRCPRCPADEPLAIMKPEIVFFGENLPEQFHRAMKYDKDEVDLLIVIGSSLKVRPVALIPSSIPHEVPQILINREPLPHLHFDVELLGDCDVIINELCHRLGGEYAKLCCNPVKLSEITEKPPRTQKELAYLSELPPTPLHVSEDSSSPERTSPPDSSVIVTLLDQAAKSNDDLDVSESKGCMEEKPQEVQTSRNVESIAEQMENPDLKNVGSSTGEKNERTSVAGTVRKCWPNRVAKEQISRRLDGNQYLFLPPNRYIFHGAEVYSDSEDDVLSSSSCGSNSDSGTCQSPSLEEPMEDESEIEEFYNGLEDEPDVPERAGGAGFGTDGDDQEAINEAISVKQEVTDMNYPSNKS
From the text: Small molecules in the form of resveratrol were obtained via ethanol extraction from Vitis vinifera and Polygonum cuspidatum. […] The extract was kept in a nitrogen environment and added to a mixture including approximately 25% by weight quercetin; 33% by weight lecithin; and 9% phytic acid (in the form of rice bran extract). […] The resulting slurry was placed into a capsule-filling machine. Individual dosages were encapsulated in gelatin capsules tinted with titanium oxide (Licaps® capsules available from Capsugel; Greenwood, S.C.; www.capsugel.com). The dosages were encapsulated in a substantially oxygen-free environment using a capsule-filling machine continually flushed with nitrogen (the Capsugel CFS 1000 Capsule Filling and Sealing Machine, available from Capsugel; Greenwood, S.C.; www.capsugel.com). […] These capsule samples were stored under ambient conditions for approximately eight months. The samples were tested for biological activity by determining whether each sample could activate sirtuin enzymes and, in particular, whether the samples stimulated SIRT1 catalytic activity. The samples were tested four months and eight months after encapsulation. Tests were performed using a SIRT1 Fluorescent Activity Assay/Drug Discovery Kit AK-555 (available from Biomol® Research Laboratories, Inc.; Plymouth Meeting, Pa.; www.biomol.com).

cardiac stem cells = conditions: rats, cited from earlier work

Which “survival of mice with injected fibrosarcoma cells” value (fibrosarcoma cells) does the source give for `O=P(O)(O)O[C@H]1[C@H](OP(=O)(O)O)[C@@H](OP(=O)(O)O)[C@H](OP(=O)(O)O)[C@@H](OP(=O)(O)O)[C@H]1OP(=O)(O)O` [IP6, (2,3,4,5,6-pentaphosphonooxycyclohexyl)dihydrogen phosphate] here?
Its value is “prolong their survival”.

What about the “growth of injected fibrosarcoma cells” value (fibrosarcoma cells; mice) of the same compound?
The value was “reduce the growth”.

What about the “suppression of growth of rhabdomyosarcoma cells” value (rhabdomyosarcoma cells) of the same compound?
The value was 50%.

What about the “tumor size versus non-treated mice” value (injected tumors) of the same compound?
Its value is 50 times smaller.

Which “biological activity of encapsulated quercetin (ability to stimulate SIRT1 activity compared to when no quercetin is present)” value (SIRT1) does the source give for `O=c1c(O)c(-c2ccc(O)c(O)c2)oc2cc(O)cc(O)c12` [quercetin] here?
Its value is “maintained biological activity”.

With `Oc1ccc(/C=C/c2cc(O)cc(O)c2)cc1` [resveratrol, 3,4′,5-trihydroxy-trans-stilbene] as the compound, how does the “cardiac functional parameters (left ventricular ejection fraction, fractional shortening)” value (cardiac stem cells; low dose (2.5 mg per kilogram) for two weeks prior to injection of cardiac stem cells) read?
Its value is “significantly improved”.

What about the “stem cell survival and proliferation” value (cardiac stem cells; low dose for two weeks prior to injection of cardiac stem cells) of the same compound?
Its value is “enhanced stem cell survival and proliferation”.
